Assay results taken from EP0354046A2 (MAY & BAKER LIMITED, priority 1988, dated 1990).

Columns and labels:
Format in all cases: in vivo
Brassica kaber = assay: Glasshouse experiment 3, % inhibition of growth (fresh weight, 19 days); conditions: for ED₉₀ Brassica kaber 2-3 leaves: applied alone; for % inhibition of growth Brassica kaber 2-3 leaves: Compound 126 0 g/ha
Experimental: (§1) A series of experiments was carried out to determine the nature of the biological interaction between bromoxynil and five compounds of general formula I on a range of weed species. The 3-benzoyl-piperidine-2,4-dione derivatives were compounds 1, 74, 99, 110 and 126. […] The growth stages of the plants at spraying are also presented with the results. Agricultural surfactant (nonyl phenol ethylene oxide condensate containing 9 moles ethylene oxide marketed as 'Agral') was added to all spray dilutions to give 0.2% v/v concentration.
(§2) After spraying the pots were arranged in randomised blocks in a glasshouse and watered as necessary. After 19 days the fresh weight of vegetation in each pot was determined. The mean fresh weights were used to calculate the percentage inhibition of each species thus [formula]
(§3) E = X + Y […] where E, X and Y are percentage inhibition of growth.
(§4) The ED values were then used to plot an isobole for each species according to the method of P.M.L. Tammes op cit. The results of percentage inhibition of growth, the ED values calculated from them and the calculated expected values are given in Tables 1-8.

Abutilon theophrasti = assay: as above; conditions: for ED₅₀ Abutilon theophrasti 1-2 leaves: applied alone; for % inhibition of growth Abutilon theophrasti 1-2 leaves: Compound 126 0 g/ha
Experimental: as §1, §2, §3, §4

Amaranthus retroflexus = assay: as above; conditions: for ED₉₀ Amaranthus retroflexus 2-4 leaves: applied alone; for % inhibition of growth Amaranthus retroflexus 2-4 leaves: Compound 126 0 g/ha
Experimental: as §1, §2, §3, §4

Eleusine indica = assay: as above
Experimental: as §1, §2, §3, §4

Solanum nigrum = assay: as above; conditions: 2-3 leaves
Experimental: as §1, §2, §3, §4

Chenopodium album = assay: as above; conditions: 2-6 leaves
Experimental: as §1, §2, §3, §4

Echinochloa crus-galli [1] = assay: as above; conditions: 3 leaves
Experimental: as §1, §2, §3, §4

Digitaria sanguinalis = assay: as above; conditions: for ED₉₀: 3 leaves; for ED₅₀: 3-4 leaves
Experimental: as §1, §2, §3, §4

maize var. Irla = assay: Glasshouse experiment 4, percentage phytotoxicity on crop after 11 days; conditions: for % crop phytotoxicity Maize (3-4 leaves): Bromoxynil 0 g/ha; for ED₂₀ crop phytotoxicity Maize (3-4 leaves): applied alone
Experimental: Agricultural surfactant ('Agral') was added to the spray dilutions to give 0.2%v/v concentration.
After spraying the pots were arranged in randomised blocks in a glasshouse and water as necessary. After 11 days the plants were assessed for percentage phytotoxicity (reduction in green area compared with unsprayed plants (0 = no effect 100 = complete destruction).
E = X + Y […] where E, X and Y are percentage phytotoxicity.
The ED values were then used to plot an isobole for each mixture according to the method of P.M.L. Tammes op cit.

Echinochloa crus-galli [2] = assay: Glasshouse experiment 2, percentage phytotoxicity after 19 days
Experimental: Agricultural surfactant-nonylphenol ethylene oxide condensate containing 9 moles ethylene oxide was added to all spray dilutions to give 0.2% v/v concentration.
After spraying, the pots were arranged in randomised blocks in a glasshouse, watered as necessary, and assessed after 19 days for percentage phytotoxicity (reduction in green area compared with unsprayed plants) (0 = no effect; 100 = complete destruction).
The results were then used to plot an isobole with a "one-sided effect" according to the methods of P.M.L. Tammes op.cit.

Eleusine indica (ELEIN) = assay: Field experiment, post-emergence spray, % control of grass weed; conditions: 29 days after application
Experimental: (§5) The following control figures were recorded on the grass weeds Brachiaria plantaginea (BRAPL), Digitaria horizontalis (DIGHO) and Eleusine indica (ELEIN) 29 days after application.

[3] = test system: Digitaria horizontalis (DIGHO); assay: as above; conditions: 29 days after application
Experimental: as §5

[4] = test system: Brachiaria plantaginea (BRAPL); assay: as above; conditions: 29 days after application
Experimental: as §5

[5] = Mutarda arvensis, read-out: % inhibition of growth Brassica kaber 2-3 leaves
[6] = Abutilon theophrasti, read-out: % inhibition of growth Abutilon theophrasti 1-2 leaves
[7] = Amaranthus retroflexus, read-out: % inhibition of growth Amaranthus retroflexus 2-4 leaves
[8] = Bromoxynil alone, 2 leaves, Table 6
[9] = Bromoxynil alone, 2 leaves, Table 7
[10] = Bromoxynil alone 2,4,8,16,31 g/ha

CS(=O)(=O)c1ccc(C(=O)C2C(=O)CCNC2=O)c(Cl)c1 (stereo not shown) [Compound 126, 3-(2-chloro-4-methylsulphonylbenzoyl)piperidine-2,4-dione]
inhibition at 1 g/ha (Brassica kaber; [5]): 0% | inhibition at 2 g/ha (Brassica kaber; [5]): 0% | inhibition at 4 g/ha (Brassica kaber; [5]): 0% | inhibition at 8 g/ha (Brassica kaber; [5]): 17% | inhibition at 16 g/ha (Brassica kaber; [5]): 26% | inhibition at 31 g/ha (Brassica kaber; [5]): 48% | inhibition at 63 g/ha (Brassica kaber; [5]): 80% | ED₉₀ Brassica kaber 2-3 leaves (Brassica kaber): ED₉₀(g/ha) 90.6 | inhibition at 1 g/ha (Abutilon theophrasti; [6]): 0% | inhibition at 2 g/ha (Abutilon theophrasti; [6]): 38% | inhibition at 4 g/ha (Abutilon theophrasti; [6]): 56% | inhibition at 8 g/ha (Abutilon theophrasti; [6]): 68% | inhibition at 16 g/ha (Abutilon theophrasti; [6]): 88% | inhibition at 31 g/ha (Abutilon theophrasti; [6]): 94% | inhibition at 63 g/ha (Abutilon theophrasti; [6]): 96% | ED₅₀ Abutilon theophrasti 1-2 leaves (Abutilon theophrasti): ED₅₀(g/ha) 20.1 | inhibition at 1 g/ha (Amaranthus retroflexus; [7]): 0% | inhibition at 2 g/ha (Amaranthus retroflexus; [7]): 50% | inhibition at 4 g/ha (Amaranthus retroflexus; [7]): 91% | inhibition at 8 g/ha (Amaranthus retroflexus; [7]): 91% | inhibition at 16 g/ha (Amaranthus retroflexus; [7]): 99% | inhibition at 31 g/ha (Amaranthus retroflexus; [7]): 100% | inhibition at 63 g/ha (Amaranthus retroflexus; [7]): 100% | ED₉₀ Amaranthus retroflexus 2-4 leaves (Amaranthus retroflexus): ED₉₀(g/ha) 7.6

O=C1CCNC(=O)C1C(=O)c1ccc(C(F)(F)F)cc1[N+](=O)[O-] (stereo not shown) [Compound 74, 3-(2-nitro-4-trifluoromethylbenzoyl)piperidine-2,4-dione]
ED₉₀ (Eleusine indica; Compound 74 alone, 3 leaves): ED₉₀(g/ha) 260.4 | ED₉₀ (Abutilon theophrasti; Compound 74 alone, 1-2 leaves): ED₉₀(g/ha) 125.6 | ED₉₀ (Solanum nigrum; Compound 74 alone): ED₉₀(g/ha) 21.45 | ED₉₀ (Chenopodium album; Compound 74 alone): ED₉₀(g/ha) 3.67 | ED₉₀ (Amaranthus retroflexus; Compound 74 alone, 2 leaves): ED₉₀(g/ha) 22.1 | ED₉₀ (Echinochloa crus-galli [1]; Compound 74 alone): ED₉₀(g/ha) 168.6 | ED₉₀ (Digitaria sanguinalis; Compound 74 alone): ED₉₀(g/ha) 180.4 | % crop phytotoxicity Maize (3-4 leaves) (maize var. Irla; Compound (74 or 99) 63 g/ha): 0% | % crop phytotoxicity Maize (3-4 leaves) (maize var. Irla; Compound (74 or 99) 125 g/ha): 0% | % crop phytotoxicity Maize (3-4 leaves) (maize var. Irla; Compound (74 or 99) 250 g/ha): 3% | % crop phytotoxicity Maize (3-4 leaves) (maize var. Irla; Compound (74 or 99) 500 g/ha): 6% | % crop phytotoxicity Maize (3-4 leaves) (maize var. Irla; Compound (74 or 99) 1000 g/ha): 17% | % crop phytotoxicity Maize (3-4 leaves) (maize var. Irla; Compound (74 or 99) 2000 g/ha): 63% | ED₂₀ crop phytotoxicity Maize (3-4 leaves) (maize var. Irla): ED₂₀(g/ha) 780 | ED₉₀ (Echinochloa crus-galli [2]; Compound 74 alone, dose giving 90% phytotoxicity): 82 g/ha

CS(=O)(=O)c1ccc(C(=O)C2C(=O)CCNC2=O)c([N+](=O)[O-])c1 (stereo not shown) [Compound 110, 3-(4-methylsulphonyl-2-nitrobenzoyl)piperidine-2,4-dione]
ED₉₀ (Brassica kaber; Compound 110 alone, 2 leaves): ED₉₀(g/ha) 13.6 | ED₅₀ (Abutilon theophrasti; Compound 110 alone, 1-2 leaves): ED₅₀(g/ha) 22.3 | % inhibition of growth (Amaranthus retroflexus; Compound 110 alone 1,2,4,8,16,31,63 g/ha, 2 leaves): 100% | ED₉₀ (Amaranthus retroflexus; Compound 110 alone, 2 leaves): ED₉₀(g/ha) 12.6

CC1(C)CC(=O)C(C(=O)c2ccc(Cl)cc2[N+](=O)[O-])C(=O)N1 (stereo not shown) [Compound 1, 3-(4-chloro-2-nitrobenzoyl)-6,6-dimethylpiperidine-2,4-dione]
ED₉₀ (Eleusine indica; Compound 1 alone, 3-4 leaves): ED₉₀ (g/ha) 66.8 | ED₉₀ (Brassica kaber; Compound 1 alone, 2-3 leaves): ED₉₀(g/ha) 58.1 | ED₅₀ (Abutilon theophrasti; Compound 1 alone, 3 leaves): ED₅₀(g/ha) 21.1 | ED₉₀ (Amaranthus retroflexus; Compound 1 alone, 2 leaves): ED₉₀(g/ha) 21.6 | ED₅₀ (Digitaria sanguinalis; Compound 1 alone): ED₅₀ (g/ha) 21.6 | % control observed (Eleusine indica (ELEIN); Compound 1 @ 250g/ha): 70% | % control observed (Eleusine indica (ELEIN); Compound 1 @ 500g/ha): 80% | % control observed ([3]; Compound 1 @ 250g/ha): 70% | % control observed ([3]; Compound 1 @ 500g/ha): 80% | % control observed ([4]; Compound 1 @ 250g/ha): 60% | % control observed ([4]; Compound 1 @ 500g/ha): 80%

CC1(C)CC(=O)C(C(=O)c2ccc(C(F)(F)F)cc2[N+](=O)[O-])C(=O)N1 (stereo not shown) [Compound 99, 3-(2-nitro-4-trifluoromethylbenzoyl)-6,6-dimethylpiperidine-2,4-dione]
ED₉₀ (Brassica kaber; Compound 99 alone, 2 leaves): ED₉₀(g/ha) 54.9 | ED₉₀ (Abutilon theophrasti; Compound 99 alone, 1-2 leaves): ED₉₀(g/ha) 23.6 | ED₉₀ (Amaranthus retroflexus; Compound 99 alone, 2 leaves): ED₉₀(g/ha) 16.8 | % crop phytotoxicity Maize (3-4 leaves) (maize var. Irla; Compound (74 or 99) 63 g/ha): 0% | % crop phytotoxicity Maize (3-4 leaves) (maize var. Irla; Compound (74 or 99) 125 g/ha): 0% | % crop phytotoxicity Maize (3-4 leaves) (maize var. Irla; Compound (74 or 99) 250 g/ha): 0% | % crop phytotoxicity Maize (3-4 leaves) (maize var. Irla; Compound (74 or 99) 500 g/ha): 4% | % crop phytotoxicity Maize (3-4 leaves) (maize var. Irla; Compound (74 or 99) 1000 g/ha): 50% | % crop phytotoxicity Maize (3-4 leaves) (maize var. Irla; Compound (74 or 99) 2000 g/ha): 51% | ED₂₀ crop phytotoxicity Maize (3-4 leaves) (maize var. Irla): ED₂₀(g/ha) 797

N#Cc1cc(Br)c(O)c(Br)c1 [Bromoxynil, 3,5-dibromo-4-hydroxybenzonitrile]
ED₉₀ (Eleusine indica; Bromoxynil alone, 3-4 leaves, Table 2): ED₉₀ (g/ha) ∞ | ED₉₀ (Eleusine indica; Bromoxynil alone, 3 leaves, Table 3): ED₉₀(g/ha) ∞ | ED₉₀ (Brassica kaber; Bromoxynil alone, 2-3 leaves, Table 1): ED₉₀(g/ha) 67.0 | ED₉₀ (Brassica kaber; [8]): ED₉₀(g/ha) 42.7 | ED₉₀ (Brassica kaber; [9]): ED₉₀(g/ha) 63.9 | % inhibition of growth Brassica kaber 2-3 leaves (Brassica kaber; Bromoxynil 18 g/ha): 30% | % inhibition of growth Brassica kaber 2-3 leaves (Brassica kaber; Bromoxynil 35 g/ha): 55% | % inhibition of growth Brassica kaber 2-3 leaves (Brassica kaber; Bromoxynil 70 g/ha): 82% | % inhibition of growth Brassica kaber 2-3 leaves (Brassica kaber; Bromoxynil 140 g/ha): 97% | % inhibition of growth Brassica kaber 2-3 leaves (Brassica kaber; Bromoxynil 280 g/ha): 98% | ED₉₀ Brassica kaber 2-3 leaves (Brassica kaber): ED₉₀(g/ha) 102.4 | ED₉₀ (Abutilon theophrasti; Bromoxynil alone, 1-2 leaves, Table 5): ED₉₀(g/ha) 119.9 | ED₉₀ (Abutilon theophrasti; Bromoxynil alone, 1-2 leaves, Table 6): ED₉₀(g/ha) 129.6 | ED₅₀ (Abutilon theophrasti; Bromoxynil alone, 1-2 leaves, Table 7): ED₅₀(g/ha) 78.6 | ED₅₀ (Abutilon theophrasti; Bromoxynil alone, 3 leaves, Table 1): ED₅₀(g/ha) 106.3 | % inhibition of growth Abutilon theophrasti 1-2 leaves (Abutilon theophrasti; Bromoxynil 18 g/ha): 0% | % inhibition of growth Abutilon theophrasti 1-2 leaves (Abutilon theophrasti; Bromoxynil 35 g/ha): 13% | % inhibition of growth Abutilon theophrasti 1-2 leaves (Abutilon theophrasti; Bromoxynil 70 g/ha): 44% | % inhibition of growth Abutilon theophrasti 1-2 leaves (Abutilon theophrasti; Bromoxynil 140 g/ha): 96% | % inhibition of growth Abutilon theophrasti 1-2 leaves (Abutilon theophrasti; Bromoxynil 280 g/ha): 99% | ED₅₀ Abutilon theophrasti 1-2 leaves (Abutilon theophrasti): ED₅₀(g/ha) 135.7 | % inhibition of growth (Solanum nigrum; [10]): 91% | ED₉₀ (Solanum nigrum; Bromoxynil alone): ED₉₀(g/ha) 21.27 | % inhibition of growth (Chenopodium album; [10]): 21% | ED₉₀ (Chenopodium album; Bromoxynil alone): ED₉₀(g/ha) 69.34 | ED₉₀ (Amaranthus retroflexus; Bromoxynil alone, 2 leaves, Table 1): ED₉₀(g/ha) 120.3 | ED₉₀ (Amaranthus retroflexus; Bromoxynil alone, 2 leaves, Table 5): ED₉₀(g/ha) 142.8 | ED₉₀ (Amaranthus retroflexus; [8]): ED₉₀(g/ha) 142.9 | ED₉₀ (Amaranthus retroflexus; [9]): ED₉₀(g/ha) 246.2 | % inhibition of growth Amaranthus retroflexus 2-4 leaves (Amaranthus retroflexus; Bromoxynil 18 g/ha): 0% | % inhibition of growth Amaranthus retroflexus 2-4 leaves (Amaranthus retroflexus; Bromoxynil 35 g/ha): 4% | % inhibition of growth Amaranthus retroflexus 2-4 leaves (Amaranthus retroflexus; Bromoxynil 70 g/ha): 8% | % inhibition of growth Amaranthus retroflexus 2-4 leaves (Amaranthus retroflexus; Bromoxynil 140 g/ha): 84% | % inhibition of growth Amaranthus retroflexus 2-4 leaves (Amaranthus retroflexus; Bromoxynil 280 g/ha): 90% | ED₉₀ Amaranthus retroflexus 2-4 leaves (Amaranthus retroflexus): ED₉₀(g/ha) 233.3 | ED₉₀ (Echinochloa crus-galli [1]; Bromoxynil alone, Table 3): ED₉₀(g/ha) ∞ | ED₅₀ (Digitaria sanguinalis; Bromoxynil alone, Table 2): ED₅₀ (g/ha) ∞ | ED₉₀ (Digitaria sanguinalis; Bromoxynil alone, Table 3): ED₉₀(g/ha) ∞ | % control observed (Eleusine indica (ELEIN); Bromoxynil 250g/ha): 0% | % control observed ([3]; Bromoxynil 250g/ha): 0% | % control observed ([4]; Bromoxynil 250g/ha): 0% | activity on Echinochloa crus-galli (Echinochloa crus-galli [2]; applied alone): no activity
